Values quoted from earlier work, collected in patent US4474765A, “Biologically active peptides” (Farmitalia Carlo Erba S.p.A., priority 1982, dated 1984).

Test system: release of ACTH, β-endorphin, growth hormone, TSH and prolactin
Settings: literature, Montecucchi et al. 1979

CC[C@H](C)[C@H](NC(=O)[C@@H](NC(=O)[C@H](CC(=O)O)NC(=O)[C@H](CC(C)C)NC(=O)[C@H](CC(C)C)NC(=O)[C@H](CC(C)C)NC(=O)[C@H](CCCNC(=N)N)NC(=O)[C@H](CC(N)=O)NC(=O)[C@H](CC(N)=O)NC(=O)[C@H](C)NC(=O)[C@H](C)NC(=O)[C@H](CCC(N)=O)NC(=O)[C@H](CCC(N)=O)NC(=O)[C@H](CCCCN)NC(=O)[C@H](CCC(=O)O)NC(=O)[C@H](CCCCN)NC(=O)[C@H](CCC(=O)O)NC(=O)[C@H](CCC(N)=O)NC(=O)[C@H](CCCCN)NC(=O)[C@H](CCC(=O)O)NC(=O)[C@@H](NC(=O)[C@H](CCC(=O)O)NC(=O)[C@@H](NC(=O)[C@H](CCSC)NC(=O)[C@H](CCCCN)NC(=O)[C@H](CCCNC(=N)N)NC(=O)[C@H](CC(C)C)NC(=O)[C@H](CC(C)C)NC(=O)[C@H](CCC(=O)O)NC(=O)[C@H](CC(C)C)NC(=O)[C@H](CO)NC(=O)[C@H](CC(C)C)NC(=O)[C@H](CC(=O)O)NC(=O)[C@@H](NC(=O)[C@H](CO)NC(=O)[C@@H](NC(=O)[C@@H]1CCCN1C(=O)[C@@H]1CCCN1C(=O)CNC(=O)[C@@H]1CCC(=O)N1)[C@@H](C)CC)[C@@H](C)CC)[C@@H](C)CC)[C@@H](C)CC)[C@@H](C)O)C(N)=O [sauvagine]
pharmacological activities (hormone release): release of ACTH and β-endorphin, and inhibition of the release of growth hormone, TSH and prolactin
